Laboratory results as given in patent publication US7521396B2, “Substituted (thioxo)carbonylaminophenyluracils” (Bayer CropScience AG, priority 2002, dated 2009).
Like-named read-outs stand apart in the source and are kept apart here. Marks after values point to notes of the source that are not given here.

Key:
[1] = tested on: weeds; test: Pre-emergence test (Example A), damage to weeds; format: in vivo; settings: soil sprayed 24 hours after sowing, rated after three weeks
Description: (§1) To produce a suitable preparation of active compound, 1 part by weight of active compound is mixed with the stated amount of solvent, the stated amount of emulsifier is added and the concentrate is diluted with water to the desired concentration.
Seeds of the test plants are sown in normal soil. After 24 hours, the soil is sprayed with the preparation of active compound such that the particular amount of active compound desired is applied per unit area. The concentration of active compound in the spray liquor is chosen such that the particular amount of active compound desired is applied in 1000 liters of water per hectare.
After three weeks, the degree of damage to the plants is rated in % damage in comparison to the development of the untreated control. The figures denote: • 0%=no effect (like untreated control) • 100%=total destruction

[2] = logP by HPLC on reversed-phase column (C 18), EEC Directive 79/831 Annex V.A8; format: physicochemical
[3] = tested on: weeds; test: Post-emergence test (Example B), damage to weeds; format: in vivo; settings: test plants of 5-15 cm sprayed, rated after three weeks
Description: as §1
Test plants of a height of 5-15 cm are sprayed with the preparation of active compound such that the particular amounts of active compound desired are applied per unit area. The concentration of the spray liquor is chosen such that the particular amounts of active compound desired are applied in 1000 l of water/ha.
After three weeks, the degree of damage to the plants is rated in % damage in comparison to the development of the untreated control.
The figures denote: • 0%=no effect (like untreated control) • 100%=total destruction

logP [2]	SMILES	activity against weeds (degree of damage) [1]	activity against weeds (degree of damage) [3]	logP ([2]; a) acidic range: 0.1% aqueous phosphoric acid, acetonitrile gradient, 43° C.)
logP = 2.88^a)	CN(Cc1ccco1)C(=O)Nc1cc(-n2c(=O)cc(C(F)(F)F)n(C)c2=O)c(F)cc1Cl [Example 44]	strong activity	strong activity	
logP = 2.79^a)	CN1CCCN(C(=O)Nc2cc(-n3c(=O)cc(C(F)(F)F)n(C)c3=O)c(F)cc2Br)C1=O [Example 7]	strong activity	strong activity	
logP = 2.51^a)	Cn1ccsc1=NC(=O)Nc1cc(-n2c(=O)cc(C(F)(F)F)n(C)c2=O)c(F)cc1Cl [Example 32]	strong activity	strong activity	
logP = 2.59^a)	Cn1ccsc1=NC(=O)Nc1cc(-n2c(=O)cc(C(F)(F)F)n(C)c2=O)c(F)cc1Br [Example 31]	strong activity	strong activity	
logP = 2.55^a)	CN1CCN(C(=O)Nc2cc(-n3c(=O)cc(C(F)(F)F)n(C)c3=O)c(F)cc2Br)C1=O [Example 5]	strong activity	strong activity	
logP = 3.06^a)	CCOC(=O)C(C)OC(=O)Nc1cc(-n2c(=O)cc(C(F)(F)F)n(C)c2=O)c(F)cc1Br (stereo not drawn) [Example 10]	strong activity	strong activity	
logP = 2.58^a)	Cn1c(C(F)(F)F)cc(=O)n(-c2cc(NC(=O)N3CCCO3)c(Cl)cc2F)c1=O [Example 24]	strong activity	strong activity	
logP = 2.67^a)	CON(C)C(=O)Nc1cc(-n2c(=O)cc(C(F)(F)F)n(C)c2=O)c(F)cc1Br [Example 8]	strong activity	strong activity	
logP = 2.63^a)	Cn1c(C(F)(F)F)cc(=O)n(-c2cc(NC(=O)N3CCCO3)c(Br)cc2F)c1=O [Example 28]	strong activity	strong activity	
logP = 2.45^a)	CCONC(=O)Nc1cc(-n2c(=O)cc(C(F)(F)F)n(C)c2=O)c(F)cc1Cl [Example 27]	strong activity	strong activity	
logP = 2.85^a)	CCN1CCN(C(=O)Nc2cc(-n3c(=O)cc(C(F)(F)F)n(C)c3=O)c(F)cc2Br)C1=O [Example 6]	strong activity	strong activity	
logP = 2.60^a)	CON(C)C(=O)Nc1cc(-n2c(=O)cc(C(F)(F)F)n(C)c2=O)c(F)cc1Cl [Example 21]	strong activity	strong activity	
logP = 2.95^a)	CN(Cc1ccco1)C(=O)Nc1cc(-n2c(=O)cc(C(F)(F)F)n(C)c2=O)c(F)cc1Br [Example 37]	strong activity	strong activity	
logP = 2.55^a)	Cn1c(C(F)(F)F)cc(=O)n(-c2cc(NC(=O)N3CCOC3=O)c(Cl)cc2F)c1=O [Example 25]	strong activity	strong activity	
logP = 2.43^a)	CCOC(=O)N1CCN(C(=O)Nc2cc(-n3c(=O)cc(C(F)(F)F)n(C)c3=O)c(F)cc2Cl)CC1 [Example 96]			
logP = 2.96^a)	Cn1c(C(F)(F)F)cc(=O)n(-c2cc(NC(=O)N3CCCCO3)c(Br)cc2F)c1=O [Example 63]			
logP = 2.59^a)	Cn1c(C(F)(F)F)cc(=O)n(-c2cc(NC(=O)N3CCOC3=O)c(Br)cc2F)c1=O [Example 30]	strong activity	strong activity	
logP = 1.72^a)	Cn1c(C(F)(F)F)cc(=O)n(-c2cc(NC(=O)N3CCC(O)C3)c(Cl)cc2F)c1=O (stereo not drawn) [Example 113]			
logP = 2.47^a)	CCOC(=O)N1CCN(C(=O)Nc2cc(-n3c(=O)cc(C(F)(F)F)n(C)c3=O)c(F)cc2Br)CC1 [Example 97]			
logP = 3.16^a)	CCOC(=O)C(C)(C)ONC(=O)Nc1cc(-n2c(=O)cc(C(F)(F)F)n(C)c2=O)c(F)cc1Br [Example 101]			
logP = 2.55^a)	COC(=O)CSC(=O)Nc1cc(-n2c(=O)cc(C(F)(F)F)n(C)c2=O)c(F)cc1Cl [Example 14]			
	Cn1c(C(F)(F)F)cc(=O)n(-c2cc(NC(=O)NCCC#N)c(Br)cc2F)c1=O [Example 20]	strong activity		logP = 2.08^a)
logP = 2.90^a)	CCOC(=O)CSC(=O)Nc1cc(-n2c(=O)cc(C(F)(F)F)n(C)c2=O)c(F)cc1Br [Example 18]			

SMILES	logP [2]	activity against weeds (degree of damage) [1]	activity against weeds (degree of damage) [3]	logP ([2]; a) acidic range: 0.1% aqueous phosphoric acid, acetonitrile gradient, 43° C.)
Cn1c(C(F)(F)F)cc(=O)n(-c2cc(NC(=O)N3CCOCC3)c(Cl)cc2F)c1=O [Example 49]	logP = 2.11^a)	strong activity		
C=CCONC(=O)Nc1cc(-n2c(=O)cc(C(F)(F)F)n(C)c2=O)c(F)cc1Br [Example 26]	logP = 2.67^a)	strong activity	strong activity	
C=CCONC(=O)Nc1cc(-n2c(=O)cc(C(F)(F)F)n(C)c2=O)c(F)cc1Cl [Example 22]	logP = 2.60^a)	strong activity		
CONC(=O)Nc1cc(-n2c(=O)cc(C(F)(F)F)n(C)c2=O)c(F)cc1Br [Example 9]	logP = 2.19^a)	strong activity	strong activity	
Cn1c(C(F)(F)F)cc(=O)n(-c2cc(NC(=O)NC3=NCCS3)c(Br)cc2F)c1=O [Example 39]	logP = 2.16^a)	strong activity	strong activity	
COC(=O)[C@@H]1CCCN1C(=O)Nc1cc(-n2c(=O)cc(C(F)(F)F)n(C)c2=O)c(F)cc1Cl [Example 34]	logP = 2.46^a)		strong activity	
Cn1c(C(F)(F)F)cc(=O)n(-c2cc(NC(=O)NC3=NCCS3)c(Cl)cc2F)c1=O [Example 48]	logP = 2.11^a)	strong activity	strong activity	
CCOC(=O)C1CCN(C(=O)Nc2cc(-n3c(=O)cc(C(F)(F)F)n(C)c3=O)c(F)cc2Cl)CC1 [Example 42]	logP = 2.84^a)		strong activity	
CCCN(C(=O)Nc1cc(-n2c(=O)cc(C(F)(F)F)n(C)c2=O)c(F)cc1Br)C(C)C [Example 38]	logP = 2.79^a)	strong activity	strong activity	
COC(=O)[C@@H]1CCCN1C(=O)Nc1cc(-n2c(=O)cc(C(F)(F)F)n(C)c2=O)c(F)cc1Br [Example 33]	logP = 2.52^a)		strong activity	
Cn1c(C(F)(F)F)cc(=O)n(-c2cc(NC(=O)N3CCOCC3)c(Br)cc2F)c1=O [Example 41]	logP = 2.16^a)		strong activity	
CCOC(=O)C1CCN(C(=O)Nc2cc(-n3c(=O)cc(C(F)(F)F)n(C)c3=O)c(F)cc2Br)CC1 [Example 36]	logP = 2.88^a)		strong activity	
CC1CN(C(=O)Nc2cc(-n3c(=O)cc(C(F)(F)F)n(C)c3=O)c(F)cc2Br)CC(C)O1 (stereo not drawn) [Example 120]	logP = 2.55^a)			
CCCN(C(=O)Nc1cc(-n2c(=O)cc(C(F)(F)F)n(C)c2=O)c(F)cc1Cl)C(C)C [Example 45]	logP = 2.58^a)	strong activity	strong activity	
